# Laboratory results reported in PubChem BioAssay (NCI).
#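 Briefly, cells in 96-well plates were exposed to five compound concentrations for 48 h, and endpoints were estimated by linear interpolation. TGI: concentration producing complete growth inhibition.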
# Experiments:
# Experiment in all cases: NCI tumour cell line growth inhibition, 48 h
# HCC-2998 colon = tested on: HCC-2998 colon
# SF-295 CNS = tested on: SF-295 CNS
# CAKI-1 renal = tested on: CAKI-1 renal
# A549 NSCLC = tested on: A549 NSCLC
# SW-620 colon = tested on: SW-620 colon
# LXFL 529 NSCLC = tested on: LXFL 529 NSCLC
# RXF 393 renal = tested on: RXF 393 renal
# OVCAR-3 ovarian = tested on: OVCAR-3 ovarian
# SK-OV-3 ovarian = tested on: SK-OV-3 ovarian
# PC-3 prostate = tested on: PC-3 prostate
Structure (SMILES),TGI (HCC-2998 colon) [µM],TGI (SF-295 CNS) [µM],TGI (CAKI-1 renal) [µM],TGI (A549 NSCLC) [µM],TGI (SW-620 colon) [µM],TGI (LXFL 529 NSCLC) [µM],TGI (RXF 393 renal) [µM],TGI (OVCAR-3 ovarian) [µM],TGI (SK-OV-3 ovarian) [µM],TGI (PC-3 prostate) [µM]
OCc1ccc2[n+](c1)CCC1c3ccccc3NC21 (stereo not drawn),> 300,> 300,> 300,> 300,> 300,> 300,> 300,> 300,> 300,
COc1ccc(C(C#N)NNC(=O)c2ccccc2O)cc1OC (stereo not drawn),,> 100,61.4,> 100,> 100,> 100,36.4,> 100,> 100,
NC(N)=NS(=O)(=O)c1ccc(NCc2c3ccccc3[n+]([O-])c3ccccc23)cc1,> 100,> 100,> 100,> 100,> 100,80.5,,> 100,> 100,
CC1(C)CC(/C=C2/OC(=O)c3ccccc32)=C(C#N)C(=O)O1,> 100,> 100,> 100,> 100,> 100,> 100,,> 100,> 100,
COC(=O)CC(=O)C[P+](c1ccccc1)(c1ccccc1)c1ccccc1,> 218,> 218,> 218,> 218,> 218,> 218,> 218,> 218,> 218,
O=C1C(Cl)=C(N2CCN(C3=C(Cl)C(=O)c4ccccc4C3=O)CC2)C(=O)c2ccccc21,8.35,21.5,3.48,28.1,2.68,0.793,3.02,3.02,28,20.3
CCOC(=O)C1Cc2[nH]c3ccccc3c2C(C)C1C (stereo not drawn),,42.3,33.9,34.8,33.6,57.1,,30.1,45.3,
COc1ccc(C2Oc3c(cc(O)c(OC)c3C)[C@@H]2C)cc1OC (stereo partly drawn),> 100,> 100,> 100,> 100,> 100,> 100,> 100,> 100,> 100,
Cn1cc2ccccc2c1-c1nc(N)nc(F)n1,> 100,> 100,> 100,> 100,> 100,> 100,> 100,> 100,> 100,
C=C(C(=O)C(=O)Oc1ccc(Cl)cc1)C(=O)c1ccc(C)cc1,76,> 100,> 100,> 100,36.4,80,79.3,> 100,> 100,
O=c1[nH]n2c(=O)cc[nH]c2c1-c1nnns1,> 100,> 100,> 100,> 100,> 100,> 100,> 100,> 100,> 100,
CC1(Cl)C(=O)NC(=O)N(C2CC(N=[N+]=[N-])C(CO)O2)C1N=[N+]=[N-] (stereo not drawn),> 100,> 100,> 100,> 100,> 100,> 100,> 100,> 100,> 100,
N=C1CSC2=NC3=C(CCC/C3=C\c3ccccc3)C(c3ccccc3)N12 (stereo not drawn),10.6,19.4,29.2,19.1,15.2,17,17.4,8.24,28.4,
